The test system of one data set is Beet Armyworm. Put plainly: Mite/Insect Screen, beet armyworm (BAW). The note with it: Spodoptera exigua, 144 h, 6 day. Format: in vivo, Spodoptera exiqua. Here is the method:
(§1) The Formula 2 compounds were tested for miticidal and insecticidal activity in the following mite/insect screen. Each test compound was formulated by dissolving the compound in an acetone-alcohol (1:1) mixture containing 23 g of TOXIMUL R (sulfonate/nonionic emulsifier blend) and 13 g of TOXIMUL S (sulfonate/nonionic emulsifier blend) per liter. These mixtures were then diluted with water to give the indicated concentrations.
(§2) Two-spotted spider mites and cotton aphids were introduced on squash cotyledons and allowed to establish on both leaf surfaces. The leaves were then sprayed with 5 ml of test solutions using a DeVilbiss atomizing sprayer at 10 psi. Both surfaces of the leaves were covered until run off and then allowed to dry for one hour. After standard exposure periods percent mortality was evaluated. Additional insects were evaluated using similar formulations and evaluation procedures.

A further data set deals with Southern Corn Rootworm. Put plainly: Mite/Insect Screen, southern corn rootworm (SCRW). To be noted: 264 h, 11 day. Format: in vivo, Diabrotica undecimpunctata howardi. Here is the method: as §1, §2
For the next data set, the system named is German Cockroach. Put plainly: Mite/Insect Screen, German cockroach (GECR). Format: in vivo. To be noted: Blattella germanica. Here is the method:
as §1, §2

The next data set deals with Two-spotted Spider Mite. Put plainly: Mite/Insect Screen, two-spotted spider mite (TSSM). Format: in vivo. The note with it: Tetranychus urticae, 4-5 day; for inhibition at 50 ppm: 50 ppm (rate in parenthesis). Here is the method: as §1, §2
Another data set relates to blowfly larvae. Put plainly: in vitro activity against blowfly larvae. Format: in vivo. The note with it: 48 hours. As to the method:
(§3) The Formula 2 compounds are also active against members of the insect order Diptera. Tables XI and XII summarize the in vitro studies of the Formula 2 compounds against blowfly larvae and adult stable fly at 48 hours.

The test system of the next data set is Cotton Aphid. Put plainly: Mite/Insect Screen, cotton aphid (CA). In kind it is in vivo, Aphis gossypii Glover. The note with it: Aphis gossypii, 4-5 day. Here is the method: as §1, §2
The next data set relates to adult stable fly. Description: in vitro activity against adult stable fly. In kind it is in vivo. To be noted: Stomoxys calcitrans, 48 hours. Here is the method:
as §3

Another data set relates to Rootknot Nematode. Put plainly: Mite/Insect Screen, rootknot nematode (NEM). In kind it is in vivo, Meiiiodyne spp. To be noted: 264 h, 11 day. As to the method: as §1, §2
Another data set deals with neonate tobacco budworm. Put plainly: LD50 against neonate tobacco budworm, petri dish assay. Format: in vivo. To be noted: Heliothis virescens; mean of two tests; mortality evaluated at 24 and 48 hours. Here is the method:
Formula 2 compounds were evaluated in the following assay to determine the LD50 against neonate tobacco budworm (Heliothis virescens). A petri dish (100 mm×20 mm) is inverted and the lid lined with a #1 qualitative filter paper. Ten neonate larvae are placed in each dish and a 1 ml test solution is pipetted onto the insects. The petri dish bottom is then placed on the lid to contain the larvae. At 1 hour after treatment, a small piece of Heliothis diet (modified slurry, Southland Products, Lake Village, AR) is added to each dish. The mortality is evaluated at 24 and 48 hours. The tests were run in triplicate.

Another data set has as its system Aster Leafhopper. Put plainly: Mite/Insect Screen, aster leafhopper (ALH). In kind it is in vivo. To be noted: Macrosteles fascifrons, 24 hr. As to the method: as §1, §2
The next data set relates to Tobacco Budworm. Description: Mite/Insect Screen, tobacco budworm (TBW). Format: in vivo. The note with it: Heliothis virescens, 144 h, 6 day; for inhibition at 50 ppm: 50 ppm (rate in parenthesis). As to the method:
as §1, §2

The results in this text go back to patent US5670364A, “A83543 compounds and process for production thereof” (priority 1995, dated 1997).

Each structure is given as a SMILES string. ≈ marks a conversion by molar mass, not a printed value.

Take `CCC1CCCC(OC2CCC(N(C)C)C(C)O2)C(C)C(=O)C2=CC3C(C=CC4CC(OC5OC(C)C(O)C(OC)C5OC)CC43)C2CC(=O)O1` (stereo not shown) [A83543K]: the inhibition at 200 ppm was 100% with Beet Armyworm; 0% in the data set on Southern Corn Rootworm; 0% with German Cockroach (168 h, 7 day); 0% in the data set with German Cockroach (504 h, 21 day); 90% in the data set with Two-spotted Spider Mite; 0% with Cotton Aphid. Further, the inhibition at 200 ppm in the data set with Rootknot Nematode was found to be 0%; in the data set with Aster Leafhopper it was 100%; in the data set on Tobacco Budworm, 100%. Moreover, the inhibition at 400 ppm with Beet Armyworm was found to be 100%; with Southern Corn Rootworm, 100%; in the data set with German Cockroach (168 h, 7 day) it was 0%; in the data set with German Cockroach (504 h, 21 day), 80%; in the data set with Two-spotted Spider Mite it was 100%; in the data set on Cotton Aphid, 0%. Further, the inhibition at 400 ppm in the data set with Rootknot Nematode was 0%; in the data set on Aster Leafhopper, 100%; in the data set with Tobacco Budworm, 100%. Moreover, the “% mortality” value in the data set with blowfly larvae (2.5 ppm) was 40%. The mortality at 2.5 ppm in the data set with adult stable fly (2.5 ppm) was 90%. In the data set with neonate tobacco budworm, this compound had an LC50 of 3.5 µg/mL (≈ 4.88 µM).
`CCC1CCCC(OC2CCC(N(C)C)C(C)O2)C(C)C(=O)C2=CC3C(C=C(C)C4CC(OC5OC(C)C(O)C(OC)C5OC)CC43)C2CC(=O)O1` (stereo not shown) [A83543O]: the inhibition at 200 ppm was found to be 100% with Beet Armyworm; 0% with Southern Corn Rootworm; 0% in the data set on German Cockroach (168 h, 7 day); 20% in the data set with German Cockroach (504 h, 21 day); 100% in the data set with Two-spotted Spider Mite; 0% in the data set with Cotton Aphid. Besides, the inhibition at 200 ppm is 0% in the data set on Rootknot Nematode, 100% with Aster Leafhopper and 100% in the data set on Tobacco Budworm. Moreover, the inhibition at 400 ppm with Beet Armyworm was 100%; in the data set on Southern Corn Rootworm, 0%; in the data set with German Cockroach (168 h, 7 day), 0%; in the data set with German Cockroach (504 h, 21 day), 100%; with Two-spotted Spider Mite, 100%; with Cotton Aphid it was 100%. Also, the inhibition at 400 ppm was 0% with Rootknot Nematode, 100% in the data set with Aster Leafhopper and 100% with Tobacco Budworm. The mortality at 5 ppm in the data set with adult stable fly (5 ppm) was 100%. Besides, in the data set on neonate tobacco budworm, the LC50 was found to be 1.4 µg/mL (≈ 1.91 µM).
As to `CCC1CCCC(OC2CCC(N(C)C)C(C)O2)C(C)C(=O)C2=CC3C(C=CC4CC(OC5OC(C)C(O)C(O)C5OC)CC43)C2CC(=O)O1` (stereo not shown) [A83543P], the inhibition at 200 ppm with Beet Armyworm was 100%; with Southern Corn Rootworm, 0%; with German Cockroach (168 h, 7 day), 0%; in the data set with German Cockroach (504 h, 21 day), 20%; with Cotton Aphid, 0%; with Rootknot Nematode it was 0%. In addition, in the data set with Aster Leafhopper, testing at 200 ppm gave an inhibition of 0%. Also, the inhibition at 400 ppm in the data set on Beet Armyworm is 100%; in the data set on Southern Corn Rootworm it was 0%; in the data set on German Cockroach (168 h, 7 day) it was 0%; in the data set on German Cockroach (504 h, 21 day), 0%; with Two-spotted Spider Mite, 100%; in the data set on Cotton Aphid it was 0%. The inhibition at 400 ppm in the data set with Rootknot Nematode was 0%; in the data set with Aster Leafhopper, 0%; in the data set with Tobacco Budworm, 100%. The figures for the inhibition at 50 ppm in the data set with Two-spotted Spider Mite and in the data set on Tobacco Budworm were 100% and 0%, respectively. Also, the “% mortality” value with blowfly larvae (10.0 ppm) was determined as 10%. Besides, the mortality at 10 ppm in the data set with adult stable fly came to 90%. Also, in the data set on neonate tobacco budworm, the LC50 was above 64 µg/mL.
On to `CCC1CCCC(OC2CCC(N(C)C)C(C)O2)C(C)C(=O)C2=CC3C(C=CC4CC(OC5OC(C)C(O)C(OC)C5O)CC43)C2CC(=O)O1` (stereo not shown) [A83543U], for which the inhibition at 200 ppm in the data set with Beet Armyworm was 100%; in the data set with Southern Corn Rootworm, 0%; with German Cockroach (168 h, 7 day), 0%; in the data set with German Cockroach (504 h, 21 day), 0%; with Two-spotted Spider Mite, 0%; in the data set with Cotton Aphid it was 0%. Also, the inhibition at 200 ppm in the data set on Rootknot Nematode was 0%; with Aster Leafhopper it was 100%. Besides, the inhibition at 400 ppm was 100% with Beet Armyworm; 0% in the data set on Southern Corn Rootworm; 0% in the data set on German Cockroach (168 h, 7 day); 0% in the data set with German Cockroach (504 h, 21 day); 0% in the data set on Two-spotted Spider Mite; 0% with Cotton Aphid. In addition, the values for the inhibition at 400 ppm in the data set on Rootknot Nematode, in the data set with Aster Leafhopper and with Tobacco Budworm were 0%, 100% and 100%, respectively. In the data set with neonate tobacco budworm, this compound displayed an LC50 of 22 µg/mL (≈ 31.3 µM). For the same compound, the inhibition at 50 ppm in the data set on Tobacco Budworm came out at 100%.
With `CCC1CCCC(OC2CCC(N(C)C)C(C)O2)C(C)C(=O)C2=CC3C(C=C(C)C4CC(OC5OC(C)C(O)C(O)C5OC)CC43)C2CC(=O)O1` (stereo not shown) [A83543W], the inhibition at 200 ppm with Beet Armyworm worked out at 0%; with Southern Corn Rootworm, 0%; in the data set on German Cockroach (168 h, 7 day), 0%; in the data set on German Cockroach (504 h, 21 day), 20%; in the data set with Cotton Aphid, 0%; in the data set on Rootknot Nematode it was 0%. In the data set with Aster Leafhopper, this compound displayed an inhibition at 200 ppm of 0%. For the same compound, the inhibition at 400 ppm was 60% in the data set on Beet Armyworm; 0% in the data set with Southern Corn Rootworm; 0% in the data set on German Cockroach (168 h, 7 day); 0% in the data set on German Cockroach (504 h, 21 day); 80% with Two-spotted Spider Mite; 0% in the data set with Cotton Aphid. The inhibition at 400 ppm with Rootknot Nematode is 0%; with Aster Leafhopper it was 0%; in the data set on Tobacco Budworm, 100%. For the same compound, the inhibition at 50 ppm in the data set with Two-spotted Spider Mite and in the data set on Tobacco Budworm was 0% each time. In the data set on blowfly larvae (10.0 ppm), the “% mortality” value is 0%. Further, in the data set on adult stable fly, the mortality at 10 ppm is 40%. This compound returned an LC50 with neonate tobacco budworm above 64 µg/mL.
In the case of `COC1C(OC2CC3C=CC4C5CC(=O)OC(C)CCCC(OC6CCC(N(C)C)C(C)O6)C(C)C(=O)C5=CC4C3C2)OC(C)C(O)C1OC` (stereo not shown) [A83543Y], the inhibition at 200 ppm in the data set with Beet Armyworm is 80%; in the data set with Southern Corn Rootworm, 0%; in the data set with German Cockroach (168 h, 7 day) it was 0%; with Cotton Aphid, 0%; in the data set with Aster Leafhopper, 60%. The inhibition at 400 ppm is 100% in the data set with Beet Armyworm; 0% in the data set on Southern Corn Rootworm; 0% in the data set on German Cockroach (168 h, 7 day); 100% with Two-spotted Spider Mite; 0% with Cotton Aphid; 80% in the data set on Aster Leafhopper. The compound further returned an inhibition at 400 ppm with Tobacco Budworm of 100%. Moreover, the inhibition at 50 ppm in the data set with Two-spotted Spider Mite and with Tobacco Budworm was 0% in each case. The “% mortality” value in the data set with blowfly larvae (10.0 ppm) amounted to 100%. The mortality at 10 ppm in the data set with adult stable fly amounted to 90%. In the data set with neonate tobacco budworm, this compound registered an LC50 of 20 µg/mL (≈ 28.4 µM).
In the case of `CCC1CCCC(OC2CCC(NC)C(C)O2)C(C)C(=O)C2=CC3C(C=CC4CC(OC5OC(C)C(O)C(OC)C5OC)CC43)C2CC(=O)O1` (stereo not shown) [N-demethyl-K, N-demethyl-A83543K], the inhibition at 200 ppm is 100% with Beet Armyworm; 0% in the data set with German Cockroach (168 h, 7 day); 20% with German Cockroach (504 h, 21 day); 0% in the data set with Cotton Aphid; 100% in the data set with Aster Leafhopper. For the same compound, the inhibition at 400 ppm with Beet Armyworm came to 100%; in the data set on Southern Corn Rootworm, 60%; in the data set on German Cockroach (168 h, 7 day) it was 0%; in the data set on German Cockroach (504 h, 21 day), 60%; in the data set with Two-spotted Spider Mite, 100%; in the data set with Cotton Aphid, 0%. Also, the inhibition at 400 ppm in the data set on Rootknot Nematode, in the data set with Aster Leafhopper and in the data set on Tobacco Budworm was 100% each time. In addition, the inhibition at 50 ppm in the data set with Two-spotted Spider Mite came out at 0%; with Tobacco Budworm it was 100%. Further, the LC50 in the data set with neonate tobacco budworm came to 9.8 µg/mL (≈ 13.9 µM).

Usually inhibition stands for how much of the control response was suppressed. In general, mortality refers to the percentage killed. A word on the LC50: it is the concentration that kills 50% of the test population. Read a high LC50 as a less lethal substance.
